Measured values as given in ChEMBL document CHEMBL5291721, “A preclinical secondary pharmacology resource illuminates target-adverse drug reaction associations of marketed drugs” (Nat Commun, 2023).

Assays:
[1] = target: Growth hormone secretagogue receptor type 1 (Homo sapiens, UniProt Q92847)
Adenosine receptor A1 = target: T1, Adenosine receptor A1 (Homo sapiens, UniProt P30542)
T1 sequence (P30542 whole entry): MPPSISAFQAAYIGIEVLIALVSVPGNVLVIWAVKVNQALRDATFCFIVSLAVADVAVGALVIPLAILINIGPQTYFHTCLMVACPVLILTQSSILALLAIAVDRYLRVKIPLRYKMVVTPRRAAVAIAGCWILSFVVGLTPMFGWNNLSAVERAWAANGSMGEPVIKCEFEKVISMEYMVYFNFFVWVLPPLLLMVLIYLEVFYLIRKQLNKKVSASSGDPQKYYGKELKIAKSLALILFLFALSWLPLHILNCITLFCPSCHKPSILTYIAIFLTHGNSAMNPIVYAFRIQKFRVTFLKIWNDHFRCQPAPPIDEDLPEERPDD

Melanocortin receptor 3 = Melanocortin receptor 3 (Homo sapiens, UniProt P41968)
Adenosine receptor A3 = target: T2, Adenosine receptor A3 (Homo sapiens, UniProt P0DMS8)
T2 sequence (P0DMS8 whole entry): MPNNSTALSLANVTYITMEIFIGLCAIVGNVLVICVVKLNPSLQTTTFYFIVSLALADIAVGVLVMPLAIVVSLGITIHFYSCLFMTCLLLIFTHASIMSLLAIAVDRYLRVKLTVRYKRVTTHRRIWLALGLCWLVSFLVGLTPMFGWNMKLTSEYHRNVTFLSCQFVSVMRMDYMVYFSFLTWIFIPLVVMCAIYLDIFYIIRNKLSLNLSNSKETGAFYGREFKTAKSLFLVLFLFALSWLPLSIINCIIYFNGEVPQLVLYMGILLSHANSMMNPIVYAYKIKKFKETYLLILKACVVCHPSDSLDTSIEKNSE

Thromboxane A2 receptor = target: T3, Thromboxane A2 receptor (Homo sapiens, UniProt P21731)
T3 sequence (P21731 whole entry): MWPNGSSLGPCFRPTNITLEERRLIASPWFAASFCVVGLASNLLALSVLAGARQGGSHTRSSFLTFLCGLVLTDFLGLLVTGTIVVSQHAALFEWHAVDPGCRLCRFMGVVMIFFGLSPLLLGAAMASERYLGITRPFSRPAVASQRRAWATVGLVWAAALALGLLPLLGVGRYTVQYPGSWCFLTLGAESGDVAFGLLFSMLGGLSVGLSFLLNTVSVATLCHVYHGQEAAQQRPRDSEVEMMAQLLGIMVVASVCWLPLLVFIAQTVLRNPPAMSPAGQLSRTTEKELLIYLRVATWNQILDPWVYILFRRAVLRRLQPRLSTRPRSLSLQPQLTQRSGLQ

[2] = target: Sodium-dependent dopamine transporter (Homo sapiens, UniProt Q01959)
[3] = target: T4, Alpha-2C adrenergic receptor (Homo sapiens, UniProt P18825); assay type: functional
T4 sequence (P18825 whole entry): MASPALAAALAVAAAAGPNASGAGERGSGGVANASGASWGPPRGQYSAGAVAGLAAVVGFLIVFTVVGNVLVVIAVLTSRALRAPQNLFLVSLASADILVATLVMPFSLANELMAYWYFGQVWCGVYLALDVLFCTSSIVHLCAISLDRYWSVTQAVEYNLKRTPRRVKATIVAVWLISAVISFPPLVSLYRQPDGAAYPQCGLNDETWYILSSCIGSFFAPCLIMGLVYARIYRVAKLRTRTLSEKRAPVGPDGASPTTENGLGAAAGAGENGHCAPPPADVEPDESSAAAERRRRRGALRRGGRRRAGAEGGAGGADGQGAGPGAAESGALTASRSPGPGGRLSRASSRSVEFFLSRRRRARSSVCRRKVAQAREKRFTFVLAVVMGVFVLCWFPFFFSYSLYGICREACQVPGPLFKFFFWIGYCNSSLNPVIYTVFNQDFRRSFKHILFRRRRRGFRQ

Motilin receptor = Motilin receptor (Homo sapiens, UniProt O43193)
[4] = target: T5, 5-hydroxytryptamine receptor 2C (Homo sapiens, UniProt P28335)
T5 sequence (P28335 whole entry): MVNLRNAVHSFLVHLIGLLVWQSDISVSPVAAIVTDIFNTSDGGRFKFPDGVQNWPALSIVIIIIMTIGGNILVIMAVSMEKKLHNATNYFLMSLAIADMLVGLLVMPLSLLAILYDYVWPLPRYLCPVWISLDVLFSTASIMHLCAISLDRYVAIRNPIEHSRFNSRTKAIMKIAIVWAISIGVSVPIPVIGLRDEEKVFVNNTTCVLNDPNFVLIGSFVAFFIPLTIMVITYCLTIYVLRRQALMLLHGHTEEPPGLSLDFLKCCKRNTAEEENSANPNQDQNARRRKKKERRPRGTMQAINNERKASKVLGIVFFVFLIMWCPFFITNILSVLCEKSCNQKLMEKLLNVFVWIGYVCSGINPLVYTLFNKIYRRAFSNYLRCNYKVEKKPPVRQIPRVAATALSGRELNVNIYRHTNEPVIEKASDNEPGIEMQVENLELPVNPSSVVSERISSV

[5] = target: Delta-type opioid receptor (Homo sapiens, UniProt P41143)
[6] = target: Neuronal acetylcholine receptor subunit alpha-4 (Homo sapiens, UniProt P43681)
Note: assay procedure not described here.

Chain of Sodium-dependent dopamine transporter (Q01959 whole entry): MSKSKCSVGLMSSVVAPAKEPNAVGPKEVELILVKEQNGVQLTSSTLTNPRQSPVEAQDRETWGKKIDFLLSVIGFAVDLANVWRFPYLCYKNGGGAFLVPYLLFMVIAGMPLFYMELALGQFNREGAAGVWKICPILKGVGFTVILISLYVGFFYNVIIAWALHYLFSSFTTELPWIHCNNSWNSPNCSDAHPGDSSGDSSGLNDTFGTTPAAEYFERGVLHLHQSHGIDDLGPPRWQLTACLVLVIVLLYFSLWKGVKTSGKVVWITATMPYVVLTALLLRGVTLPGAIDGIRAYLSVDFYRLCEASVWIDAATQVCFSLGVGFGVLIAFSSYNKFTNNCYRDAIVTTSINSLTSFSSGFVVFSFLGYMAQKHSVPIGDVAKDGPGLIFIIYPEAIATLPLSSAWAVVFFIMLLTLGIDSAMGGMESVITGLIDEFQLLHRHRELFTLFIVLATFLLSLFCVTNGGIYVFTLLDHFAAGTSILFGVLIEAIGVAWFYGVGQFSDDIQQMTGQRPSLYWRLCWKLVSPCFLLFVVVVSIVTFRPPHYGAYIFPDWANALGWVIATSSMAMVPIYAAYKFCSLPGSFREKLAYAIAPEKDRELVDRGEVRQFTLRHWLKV
Chain of Growth hormone secretagogue receptor type 1 (Q92847 whole entry): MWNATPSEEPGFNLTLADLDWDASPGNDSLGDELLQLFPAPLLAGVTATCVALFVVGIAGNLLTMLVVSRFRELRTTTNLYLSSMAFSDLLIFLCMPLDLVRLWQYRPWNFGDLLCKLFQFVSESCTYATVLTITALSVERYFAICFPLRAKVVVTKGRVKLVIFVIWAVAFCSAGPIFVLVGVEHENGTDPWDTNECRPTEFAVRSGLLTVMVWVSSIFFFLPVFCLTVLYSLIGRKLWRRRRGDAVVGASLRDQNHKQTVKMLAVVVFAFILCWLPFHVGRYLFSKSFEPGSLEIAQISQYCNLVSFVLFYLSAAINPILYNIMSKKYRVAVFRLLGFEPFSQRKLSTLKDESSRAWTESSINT
Chain of Melanocortin receptor 3 (P41968 whole entry): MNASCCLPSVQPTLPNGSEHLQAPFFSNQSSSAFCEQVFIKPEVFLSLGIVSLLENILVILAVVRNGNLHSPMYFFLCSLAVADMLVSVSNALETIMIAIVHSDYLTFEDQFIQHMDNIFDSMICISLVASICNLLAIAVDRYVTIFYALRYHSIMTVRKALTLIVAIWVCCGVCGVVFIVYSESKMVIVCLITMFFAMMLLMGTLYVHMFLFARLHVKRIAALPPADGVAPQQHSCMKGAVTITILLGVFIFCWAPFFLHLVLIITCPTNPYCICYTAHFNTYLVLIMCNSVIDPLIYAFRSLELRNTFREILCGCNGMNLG
Chain of Delta-type opioid receptor (P41143 whole entry): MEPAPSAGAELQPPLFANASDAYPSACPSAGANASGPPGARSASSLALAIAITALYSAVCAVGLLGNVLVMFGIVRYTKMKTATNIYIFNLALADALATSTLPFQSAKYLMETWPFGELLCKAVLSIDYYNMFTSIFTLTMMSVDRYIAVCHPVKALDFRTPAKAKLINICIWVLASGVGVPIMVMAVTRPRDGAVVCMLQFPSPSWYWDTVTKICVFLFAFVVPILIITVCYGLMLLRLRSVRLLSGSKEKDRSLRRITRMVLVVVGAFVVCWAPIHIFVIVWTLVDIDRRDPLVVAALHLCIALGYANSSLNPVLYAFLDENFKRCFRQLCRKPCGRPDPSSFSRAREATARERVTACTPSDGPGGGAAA
Chain of Neuronal acetylcholine receptor subunit alpha-4 (P43681 whole entry): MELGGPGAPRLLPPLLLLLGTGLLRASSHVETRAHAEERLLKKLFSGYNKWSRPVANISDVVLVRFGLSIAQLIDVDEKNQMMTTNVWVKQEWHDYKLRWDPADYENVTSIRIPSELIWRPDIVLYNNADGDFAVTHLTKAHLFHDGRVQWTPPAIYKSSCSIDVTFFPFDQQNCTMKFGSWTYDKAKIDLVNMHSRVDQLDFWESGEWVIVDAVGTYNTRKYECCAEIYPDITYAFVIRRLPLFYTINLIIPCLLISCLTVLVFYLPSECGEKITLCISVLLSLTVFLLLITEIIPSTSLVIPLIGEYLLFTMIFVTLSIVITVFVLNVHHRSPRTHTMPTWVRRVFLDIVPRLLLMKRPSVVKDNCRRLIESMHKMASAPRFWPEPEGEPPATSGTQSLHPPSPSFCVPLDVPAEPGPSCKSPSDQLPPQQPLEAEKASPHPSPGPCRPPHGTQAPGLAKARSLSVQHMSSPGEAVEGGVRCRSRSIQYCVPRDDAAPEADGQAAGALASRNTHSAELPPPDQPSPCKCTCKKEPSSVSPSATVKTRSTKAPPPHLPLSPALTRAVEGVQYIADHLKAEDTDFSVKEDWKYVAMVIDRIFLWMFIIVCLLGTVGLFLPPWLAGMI
Chain of Motilin receptor (O43193 whole entry): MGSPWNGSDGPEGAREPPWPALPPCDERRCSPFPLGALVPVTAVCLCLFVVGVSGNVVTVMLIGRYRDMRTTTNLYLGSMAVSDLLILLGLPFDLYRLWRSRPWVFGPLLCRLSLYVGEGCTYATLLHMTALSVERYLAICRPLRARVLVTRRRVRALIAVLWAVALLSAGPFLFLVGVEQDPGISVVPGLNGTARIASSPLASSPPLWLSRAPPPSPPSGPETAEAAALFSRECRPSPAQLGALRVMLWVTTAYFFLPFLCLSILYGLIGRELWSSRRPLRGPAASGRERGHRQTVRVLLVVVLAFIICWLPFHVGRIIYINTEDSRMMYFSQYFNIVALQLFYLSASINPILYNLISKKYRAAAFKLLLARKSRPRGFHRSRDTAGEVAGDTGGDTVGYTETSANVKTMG

SMILES | AC50 [1] | AC50 (Adenosine receptor A1) | AC50 (Melanocortin receptor 3) | AC50 (Adenosine receptor A3) | AC50 (Thromboxane A2 receptor) | AC50 [2] | AC50 (Motilin receptor) | AC50 [4] | AC50 [5] | AC50 [6] | AC50 [3]
CCOc1cc([C@@H](CS(C)(=O)=O)N2C(=O)c3cccc(NC(C)=O)c3C2=O)ccc1OC | > 30 µM | > 30 µM | > 30 µM | > 30 µM | – | > 30 µM | > 30 µM | > 30 µM | > 30 µM | > 30 µM | > 30 µM
Cc1nnc(SCC2=C(C(=O)O)N3C(=O)[C@@H](NC(=O)Cn4cnnn4)[C@H]3SC2)s1 [CEFAZOLIN] | > 300 µM | > 300 µM | > 300 µM | > 300 µM | – | > 300 µM | > 300 µM | > 300 µM | > 300 µM | > 300 µM | > 300 µM
CC(C)(O/N=C(\C(=O)N[C@@H]1C(=O)N2C(C(=O)[O-])=C(C[n+]3ccccc3)CS[C@H]12)c1csc(N)n1)C(=O)O [CEFTAZIDIME] | > 300 µM | > 300 µM | > 300 µM | > 300 µM | – | > 300 µM | > 300 µM | > 300 µM | > 300 µM | > 300 µM | > 300 µM
CC(C)NC(=N)NC(=N)Nc1ccc(Cl)c(Cl)c1 [CHLORPROGUANIL] | – | – | – | – | – | – | – | 7.9 µM | > 30 µM | – | 8.9 µM
Cc1cc(C2CCCCC2)n(O)c(=O)c1 [CICLOPIROX] | – | – | > 30 µM | > 30 µM | – | > 30 µM | – | – | – | > 30 µM | > 30 µM
Clc1ccc(Cn2c(CN3CCCC3)nc3ccccc32)cc1 [CLEMIZOLE] | > 30 µM | > 30 µM | > 30 µM | > 30 µM | – | 24 µM | > 30 µM | > 30 µM | > 30 µM | > 10 µM | > 30 µM
Cc1onc(-c2c(F)cccc2Cl)c1C(=O)N[C@@H]1C(=O)N2[C@@H]1SC(C)(C)[C@@H]2C(=O)O [FLOXACILLIN] | > 30 µM | > 30 µM | > 30 µM | > 30 µM | – | > 30 µM | > 30 µM | > 30 µM | > 30 µM | > 30 µM | > 30 µM
S=P(N1CC1)(N1CC1)N1CC1 [THIOTEPA] | > 30 µM | > 30 µM | > 30 µM | > 30 µM | – | 27 µM | > 30 µM | 9.4 µM | > 30 µM | > 30 µM | 4.4 µM
CC(C)C[C@H](NC(=O)[C@@H](O)[C@H](N)Cc1ccccc1)C(=O)O [UBENIMEX] | – | – | > 30 µM | > 30 µM | > 30 µM | > 30 µM | – | > 30 µM | > 30 µM | > 30 µM | > 30 µM

Further lines, with some results ahead:

AC50 [1] | AC50 (Adenosine receptor A1) | AC50 (Melanocortin receptor 3) | AC50 (Adenosine receptor A3) | AC50 (Thromboxane A2 receptor) | AC50 [2] | AC50 (Motilin receptor) | AC50 [4] | AC50 [5] | AC50 [6] | SMILES | AC50 [3]
> 30 µM | > 30 µM | > 30 µM | > 30 µM | > 10 µM | > 30 µM | > 30 µM | 14 µM | > 30 µM | > 10 µM | CCOc1nc2cccc(C(=O)O)c2n1Cc1ccc(-c2ccccc2-c2nnn[nH]2)cc1 | > 30 µM
> 30 µM | > 30 µM | > 30 µM | > 30 µM | > 30 µM | > 30 µM | > 30 µM | > 30 µM | > 30 µM | > 30 µM | CC(=O)Nc1ccc(CC(=O)O)cc1 [ACTARIT] | > 30 µM
> 30 µM | > 30 µM | > 30 µM | > 30 µM | > 30 µM | > 30 µM | > 30 µM | > 30 µM | > 30 µM | > 30 µM | CC(C(=O)O)c1ccc2oc(-c3ccc(Cl)cc3)nc2c1 (configuration not stated) [BENOXAPROFEN] | > 30 µM
> 30 µM | > 30 µM | > 30 µM | > 30 µM | – | > 30 µM | > 30 µM | > 30 µM | > 30 µM | > 30 µM | CC1(C)S[C@@H]2[C@H](NC(=O)C(C(=O)O)c3ccccc3)C(=O)N2[C@H]1C(=O)O (some centres not stated) [CARBENICILLIN] | > 30 µM
> 30 µM | > 30 µM | > 30 µM | > 30 µM | > 30 µM | > 30 µM | > 30 µM | > 30 µM | > 30 µM | > 30 µM | CC=CC1=C(C(=O)O)N2C(=O)[C@@H](NC(=O)[C@H](N)c3ccc(O)cc3)[C@H]2SC1 [CEFPROZIL] | > 30 µM
> 30 µM | > 30 µM | > 30 µM | > 30 µM | > 30 µM | > 30 µM | > 10 µM | > 30 µM | > 30 µM | > 10 µM | CCCNC(=O)NS(=O)(=O)c1ccc(Cl)cc1 [CHLORPROPAMIDE] | > 10 µM
> 30 µM | > 30 µM | > 30 µM | > 30 µM | – | > 30 µM | 25 µM | > 30 µM | > 30 µM | – | CCC(=O)O[C@]1(C(=O)CCl)[C@@H](C)C[C@H]2[C@@H]3CCC4=CC(=O)C=C[C@]4(C)[C@@]3(F)[C@@H](O)C[C@@]21C [CLOBETASOL PROPIONATE] | > 30 µM
> 30 µM | > 30 µM | > 30 µM | > 30 µM | – | > 30 µM | > 30 µM | > 30 µM | > 30 µM | > 30 µM | CC(C)Cc1ccc([C@H](C)C(=O)O)cc1 [DEXIBUPROFEN] | > 30 µM
> 30 µM | > 30 µM | > 30 µM | 18 µM | – | > 30 µM | > 30 µM | > 30 µM | > 30 µM | > 30 µM | CNC[C@H](O)c1ccc(O)c(O)c1 [EPINEPHRINE] | –
> 30 µM | > 30 µM | > 30 µM | > 30 µM | > 30 µM | – | > 30 µM | – | > 30 µM | > 30 µM | CN1Cc2c(N)cccc2C(c2ccccc2)C1 (configuration not stated) [NOMIFENSINE] | > 30 µM
> 10 µM | > 30 µM | > 10 µM | 11.4 µM | > 10 µM | > 10 µM | > 10 µM | – | > 30 µM | > 10 µM | COc1cc(C(=O)NS(=O)(=O)c2ccccc2C)ccc1Cc1cn(C)c2ccc(NC(=O)OC3CCCC3)cc12 [ZAFIRLUKAST] | –
